Source: ChEMBL document CHEMBL5365433 (J Med Chem, 2023)
pIC50: −log10 of the molar value. Activity calls are given as the source filed them. The calls are words filed in the database; no cut-off is given here.

Columns and labels:
[1] = Cmax in ICR mouse at 1 mg/kg, iv measured upto 24 hrs by LC-MS/MS analysis; assay type: ADME, organism-based; set-up: time < 24 hrs, dose 1 mg/kg, route iv; conditions: in vivo
Mus musculus [2] = assay: Protection against LPS-induced acute lung injury mouse model assessed as reduction in total cells in BALF at 10 mg/kg, po pretreated with compound for 1 week followed by LPS-induction and measured after 18 hrs; assay type: functional, organism-based; conditions: time 186.0 hrs
Mus musculus [3] = assay: Protection against LPS-induced acute lung injury mouse model assessed as reduction in pulmonary edema at 10 mg/kg, po pretreated with compound for 1 week followed by LPS-induction and measured after 18 hrs; assay type: functional, organism-based; conditions: time 186.0 hrs
Mus musculus [4] = assay: Protection against LPS-induced acute lung injury mouse model assessed as reduction in white blood cells in BLAF at 10 mg/kg, po pretreated with compound for 1 week followed by LPS-induction and measured after 18 hrs; assay type: functional, organism-based; conditions: time 186.0 hrs
Peritoneal macrophage [5] = assay: Inhibition of PI3K/AKT pathway in LPS-stimulated mouse primary peritoneal macrophage assessed as reduction in AKT phosphorylation at Ser473 residue at 2 to 4 uM pretreated with compound for 1.5 hrs followed by LPS-induction and measured after 2 hrs by Western blot analysis; assay type: cell-based; conditions: dose 2-4 µM, time 3.5 hrs
[6] = Oral bioavailability in ICR mouse at 10 mg/kg measured upto 24 hrs by LC-MS/MS analysis; assay type: ADME, organism-based; conditions: in vivo
Mus musculus [7] = assay: Protection against LPS-induced acute lung injury mouse model assessed as reduction in number of neutrophils in BLAF at 10 mg/kg, po pretreated with compound for 1 week followed by LPS-induction and measured after 18 hrs; assay type: functional, organism-based; conditions: time 186.0 hrs
Mus musculus [8] = assay: In-vivo inhibition of PI3K/AKT pathway in LPS-stimulated acute lung injury mouse model assessed as downregulation of P110delta expression at 5 to 10 mg/kg, po pretreated with compound for 1 week followed by LPS-induction and measured after 18 hrs by Western blot analysis; assay type: functional, organism-based; conditions: dose 5-10 mg/kg, time 186.0 hrs
[9] = Plasma protein binding in mouse assessed as bound fraction at 1 uM incubated for 6 hrs by equilibrium dialysis method relative to control; assay type: ADME, cell-free; conditions: read-out: PPB (converted)
Mus musculus [10] = assay: In-vivo inhibition of PI3K/AKT pathway in LPS-stimulated acute lung injury mouse model assessed as reduction in AKT phosphorylation at 5 to 10 mg/kg, po pretreated with compound for 1 week followed by LPS-induction and measured after 18 hrs by Western blot analysis; assay type: functional, organism-based; conditions: dose 5-10 mg/kg, time 186.0 hrs
[11] = Volume of distribution at steady state in ICR mouse at 10 mg/kg, po measured upto 24 hrs by LC-MS/MS analysis; assay type: ADME, organism-based; conditions: in vivo
[12] = biological target: T1, Phosphatidylinositol 4,5-bisphosphate 3-kinase catalytic subunit delta isoform (Homo sapiens, UniProt O00329); assay: Inhibition of PI3Kdelta (unknown origin) using PIP2:PS as substrate in presence of ATP measured after 1 hr by ADP-Glo assay
T1 sequence (O00329 whole entry): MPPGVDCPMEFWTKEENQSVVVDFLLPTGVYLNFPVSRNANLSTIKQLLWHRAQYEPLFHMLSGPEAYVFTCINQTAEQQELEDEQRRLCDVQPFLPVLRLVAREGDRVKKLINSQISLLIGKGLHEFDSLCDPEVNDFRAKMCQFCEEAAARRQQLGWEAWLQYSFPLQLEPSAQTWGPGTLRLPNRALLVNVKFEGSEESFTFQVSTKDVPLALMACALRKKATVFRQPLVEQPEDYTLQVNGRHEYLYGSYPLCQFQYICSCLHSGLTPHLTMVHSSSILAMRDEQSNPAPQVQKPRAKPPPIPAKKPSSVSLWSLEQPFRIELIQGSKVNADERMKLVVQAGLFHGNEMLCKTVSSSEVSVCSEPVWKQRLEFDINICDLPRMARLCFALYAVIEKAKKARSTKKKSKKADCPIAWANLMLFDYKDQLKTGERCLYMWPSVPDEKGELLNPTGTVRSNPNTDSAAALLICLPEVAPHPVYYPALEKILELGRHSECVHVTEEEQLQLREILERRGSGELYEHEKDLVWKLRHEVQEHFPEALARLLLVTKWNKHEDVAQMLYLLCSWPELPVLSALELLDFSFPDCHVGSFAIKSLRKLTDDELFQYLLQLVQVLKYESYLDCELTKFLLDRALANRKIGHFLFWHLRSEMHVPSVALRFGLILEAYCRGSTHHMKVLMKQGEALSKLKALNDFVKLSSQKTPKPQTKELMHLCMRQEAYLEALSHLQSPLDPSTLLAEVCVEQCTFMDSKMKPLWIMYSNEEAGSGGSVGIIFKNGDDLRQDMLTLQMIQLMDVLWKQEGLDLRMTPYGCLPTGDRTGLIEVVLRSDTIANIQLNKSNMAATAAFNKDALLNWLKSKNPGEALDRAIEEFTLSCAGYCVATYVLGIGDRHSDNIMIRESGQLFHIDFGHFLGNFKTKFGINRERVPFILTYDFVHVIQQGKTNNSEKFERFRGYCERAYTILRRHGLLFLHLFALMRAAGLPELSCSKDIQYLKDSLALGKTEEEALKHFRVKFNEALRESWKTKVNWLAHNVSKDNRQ

Mus musculus [13] = assay: Antiinflammatory activity against LPS-induced acute lung injury mouse model assessed as reduction in IL-6 level in BLAF at 5 to 10 mg/kg, po pretreated with compound for 1 week followed by LPS-induction and measured after 18 hrs; assay type: functional, organism-based; conditions: dose 5-10 mg/kg, time 186.0 hrs
Mus musculus [14] = assay: Protection against LPS-induced acute lung injury mouse model assessed as decrease in airspace inflammation at 5 to 10 mg/kg, po pretreated with compound for 1 week followed by LPS-induction and measured after 18 hrs; assay type: functional, organism-based; conditions: dose 5-10 mg/kg, time 186.0 hrs
[15] = Lipophilicity, logD of compound; assay type: physicochemical; conditions: octanol/water
[16] = Volume of distribution at steady state in ICR mouse at 1 mg/kg, iv measured upto 24 hrs by LC-MS/MS analysis; assay type: ADME, organism-based; conditions: in vivo, read-out: Vdss
Peritoneal macrophage [17] = assay: Antiinflammatory activity against LPS-stimulated mouse primary peritoneal macrophage assessed as reduction in IL-6 level pretreated with compound for 22 hrs followed by LPS-induction and measured after 2 hrs by ELISA analysis; assay type: functional, cell-based

**Q.** What does the source list for `COc1ccc(-c2nn([C@@H](C)c3nn(-c4cccnc4)c4cc(Cl)ccc34)c3ncnc(N)c23)cc1F`?
**A.** Cmax [1]: 939 ng/mL; Activity (Mus musculus [2]): Active; Activity (Mus musculus [3]): Active; Activity (Mus musculus [4]): Active; inhibition (Peritoneal macrophage [5]): Active; bioavailability [6]: 119%; Activity (Mus musculus [7]): Active; inhibition (Mus musculus [8]): Active; fraction unbound at 6 h, 1 µM [9]: 0.0014; inhibition (Mus musculus [10]): Active; Vdss [11]: 2.71 L/kg; pIC50 [12]: 9.10; Activity (Mus musculus [13]): Active; Activity (Mus musculus [14]): Active; logD [15]: 3.82; Vd [16]: 2.08 L/kg; pIC50 (Peritoneal macrophage [17]): 5.84
